Species: Rattus norvegicus
Experiment: Open TG-GATES - Regimen: Single
Type: toxicity, organism-based, Sprague-Dawley
Design: regimen Single, gender Male, age 6 weeks
Conditions: in vivo, po, 0 mg/kg, route gavage, dose level Control; for APTT / Bas / Eos / Fbg / Hb / Ht / Lym / MCH / MCHC / MCV / Mono / Neu / PT / Plat / RBC / Ret / WBC: tissue Blood; for KIDNEY_L / KIDNEY_R / KIDNEY_TOTAL: tissue Kidney; for LIVER: tissue Liver; for A/G / ALP / ALT / AST / BUN / CRE / Ca / Cl / DBIL / GLC / IP / K / LDH / Na / PL / RALB / TBIL / TC / TG / TP / gamma-GTP: tissue Plasma

CN(C/C=C/C#CC(C)(C)C)Cc1cccc2ccccc12 [TERBINAFINE]
TERMINAL_BW (3 h): 225.4 g
APTT (3 h): 18.8 s
Bas (3 h): 0.6%
Eos (3 h): 0.8%
Fbg (3 h): 226 mg/dL
Hb (3 h): 13.2 g/dL
Ht (3 h): 39.2%
Lym (3 h): 81.8%
MCH (3 h): 21.8 pg
MCHC (3 h): 33.7%
MCV (3 h): 64.7 fL
Mono (3 h): 2.4%
Neu (3 h): 13.6%
PT (3 h): 12.1 s
Plat (3 h): 121.7 x10_4/uL
RBC (3 h): 606.2 x10_4/ul
Ret (3 h): 7.5%
WBC (3 h): 116.5 x10_2/uL
KIDNEY_L (3 h): 1.1 g
KIDNEY_R (3 h): 1 g
KIDNEY_TOTAL (3 h): 2.1 g
LIVER (3 h): 10.9 g
A/G (3 h): 1.7
ALP (3 h): 1027 IU/L
ALT (3 h): 40.4 IU/L
AST (3 h): 72.4 IU/L
BUN (3 h): 12 mg/dL
CRE (3 h): 0.4 mg/dL
Ca (3 h): 10.8 mg/dL
Cl (3 h): 101.8 meq/L
DBIL (3 h): 0.074 mg/dL
GLC (3 h): 202.2 mg/dL
IP (3 h): 9 mg/dL
K (3 h): 3.7 meq/L
LDH (3 h): 154.4 IU/L
Na (3 h): 140.8 meq/L
PL (3 h): 151.8 mg/dL
RALB (3 h): 3.4 g/dL
TBIL (3 h): 0.1 mg/dL
TC (3 h): 85.4 mg/dL
TG (3 h): 68.4 mg/dL
TP (3 h): 5.5 g/dL
gamma-GTP (3 h): 1 IU/L
TERMINAL_BW (6 h): 222.8 g
APTT (6 h): 19 s
Bas (6 h): 0.6%
Eos (6 h): 0.8%
Fbg (6 h): 229.4 mg/dL
Hb (6 h): 13.7 g/dL
Ht (6 h): 40.5%
Lym (6 h): 72.6%
MCH (6 h): 21.1 pg
MCHC (6 h): 33.8%
MCV (6 h): 62.3 fL
Mono (6 h): 3.2%
Neu (6 h): 22.4%
PT (6 h): 12 s
Plat (6 h): 132.2 x10_4/uL
RBC (6 h): 650.8 x10_4/ul
Ret (6 h): 6.6%
WBC (6 h): 113 x10_2/uL
KIDNEY_L (6 h): 1 g
KIDNEY_R (6 h): 1 g
KIDNEY_TOTAL (6 h): 2 g
LIVER (6 h): 9.9 g
A/G (6 h): 1.7
ALP (6 h): 967.6 IU/L
ALT (6 h): 34.8 IU/L
AST (6 h): 69.6 IU/L
BUN (6 h): 10.6 mg/dL
CRE (6 h): 0.4 mg/dL
Ca (6 h): 10.8 mg/dL
Cl (6 h): 102.8 meq/L
DBIL (6 h): 0.074 mg/dL
GLC (6 h): 197.2 mg/dL
IP (6 h): 8.8 mg/dL
K (6 h): 3.8 meq/L
LDH (6 h): 147.4 IU/L
Na (6 h): 140.6 meq/L
PL (6 h): 133.4 mg/dL
RALB (6 h): 3.5 g/dL
TBIL (6 h): 0.1 mg/dL
TC (6 h): 76.2 mg/dL
TG (6 h): 59.2 mg/dL
TP (6 h): 5.5 g/dL
gamma-GTP (6 h): 1 IU/L
TERMINAL_BW (9 h): 219.8 g
APTT (9 h): 18.2 s
Bas (9 h): 0.6%
Eos (9 h): 1%
Fbg (9 h): 229 mg/dL
Hb (9 h): 13.4 g/dL
Ht (9 h): 39.8%
Lym (9 h): 73.8%
MCH (9 h): 20.9 pg
MCHC (9 h): 33.5%
MCV (9 h): 62.5 fL
Mono (9 h): 1.8%
Neu (9 h): 22.4%
PT (9 h): 12.2 s
Plat (9 h): 119.3 x10_4/uL
RBC (9 h): 637.4 x10_4/ul
Ret (9 h): 6.8%
WBC (9 h): 89.2 x10_2/uL
KIDNEY_L (9 h): 1 g
KIDNEY_R (9 h): 1 g
KIDNEY_TOTAL (9 h): 2 g
LIVER (9 h): 9.3 g
A/G (9 h): 1.6
ALP (9 h): 810.4 IU/L
ALT (9 h): 31 IU/L
AST (9 h): 62.8 IU/L
BUN (9 h): 11.8 mg/dL
CRE (9 h): 0.4 mg/dL
Ca (9 h): 10.5 mg/dL
Cl (9 h): 103.6 meq/L
DBIL (9 h): 0.066 mg/dL
GLC (9 h): 204.2 mg/dL
IP (9 h): 9.8 mg/dL
K (9 h): 3.9 meq/L
LDH (9 h): 167.6 IU/L
Na (9 h): 141.4 meq/L
PL (9 h): 136.4 mg/dL
RALB (9 h): 3.4 g/dL
TBIL (9 h): 0.1 mg/dL
TC (9 h): 70.2 mg/dL
TG (9 h): 62 mg/dL
TP (9 h): 5.6 g/dL
gamma-GTP (9 h): 1.4 IU/L
TERMINAL_BW (24 h): 238.7 g
APTT (24 h): 18.9 s
Bas (24 h): 0.8%
Eos (24 h): 1%
Fbg (24 h): 236.8 mg/dL
Hb (24 h): 13.2 g/dL
Ht (24 h): 39.1%
Lym (24 h): 79.2%
MCH (24 h): 21.6 pg
MCHC (24 h): 33.7%
MCV (24 h): 64.3 fL
Mono (24 h): 2.8%
Neu (24 h): 16.4%
PT (24 h): 11.8 s
Plat (24 h): 132.1 x10_4/uL
RBC (24 h): 608.4 x10_4/ul
Ret (24 h): 6.3%
WBC (24 h): 97.8 x10_2/uL
KIDNEY_L (24 h): 1 g
KIDNEY_R (24 h): 1 g
KIDNEY_TOTAL (24 h): 2 g
LIVER (24 h): 11.6 g
A/G (24 h): 1.6
ALP (24 h): 986.4 IU/L
ALT (24 h): 36.4 IU/L
AST (24 h): 74.4 IU/L
BUN (24 h): 15.4 mg/dL
CRE (24 h): 0.4 mg/dL
Ca (24 h): 10.9 mg/dL
Cl (24 h): 103.6 meq/L
DBIL (24 h): 0.1 mg/dL
GLC (24 h): 196.8 mg/dL
IP (24 h): 7.4 mg/dL
K (24 h): 4.2 meq/L
LDH (24 h): 189.4 IU/L
Na (24 h): 141.2 meq/L
PL (24 h): 152 mg/dL
RALB (24 h): 3.5 g/dL
TBIL (24 h): 0.2 mg/dL
TC (24 h): 74.4 mg/dL
TG (24 h): 107.8 mg/dL
TP (24 h): 5.7 g/dL
gamma-GTP (24 h): 1.6 IU/L

Source: ChEMBL document CHEMBL3885861, “Open TG-GATES”
